Values quoted from earlier work, collected in US7816357B2, “Azabicyclic heterocycles as cannabinoid receptor modulators” (Bristol-Myers Squibb Company, priority 2003, dated 2010).

System: human subjects
Details: 16 week trial period, published Phase IIb data

## Cc1c(C(=O)NN2CCCCC2)nn(-c2ccc(Cl)cc2Cl)c1-c1ccc(Cl)cc1 [SR-141716]
  body weight in human subjects: dose-dependently reduced body weight
